{"source": "patent US20100137419A1", "about": "“ANTI-CANCER AGENT” (WAN STATION CO., LTD., priority 2006, published 2010)", "key": {"[1]": {"system": "mouse malignant melanoma cell line (B16)", "assay": "Examination of anti-cancer action 1 (without electroporation), cell survival rate with Tetra Color One", "assay_type": "cell-based", "conditions": "10 and 100 nM, DMSO 0.1%, without electroporation, 0, 24, 48, 72 hours (FIG. 3)", "description": "(§1) Subsequently, the cell line contained in each of the samples A0 to A5 was cultured in a CO2 incubator for 24 hours. The temperature in the CO2 incubator was set at 37.0° C., and the concentration of CO2 was set at 5.0%. Thereafter, 10 μl of a cell proliferation test reagent (manufactured by Seikagaku Corp.; product name: Tetra Color One) was added to each sample, and they were reacted in a CO2 incubator for 2 hours. Thereafter, the absorbance at a wavelength of 450 nm (control wavelength: 600 nm) was measured using a microplate reader (manufactured by Bio-Rad Laboratories, Inc.), so as to measure the survival rate of the cell line. The survival rate was measured at time points of 24, 48, and 72 hours after the reaction with the cell proliferation test reagent.\nSubsequently, the cell line contained in the samples C0 to C2 were cultured under the same conditions as those described in the “determination of solvent concentration” above, and the cell proliferation test reagent was reacted therewith. Then, the survival rate of the cells was measured at 0, 24, 48, and 72 hours after the reaction."}, "[2]": {"system": "mouse malignant melanoma cell line (B16)", "assay": "Examination of anti-cancer action 2 (with electroporation), cell survival rate with Tetra Color One", "assay_type": "cell-based", "conditions": "DMSO 0.1%", "description": "as §1\nThereafter, a DC pulse of 30 V was applied to the electrodes of each cuvette 10 times, so as to perform an electroporation operation.\nSubsequently, the cell line contained in the samples D0 to D2 were cultured under the same conditions as those described in the “determination of solvent concentration” above, and the cell proliferation test reagent was reacted therewith. Then, the survival rate of the cells was measured at 0, 24, 48, and 72 hours after the reaction."}, "[3]": {"assay": "heat stability of the rotaxane compound", "assay_type": "physicochemical"}}, "data": [{"substance": "[2][bis (2-(3,5-dimethylphenylcarbonyloxy)ethyl) ammonium trifluoromethanesulfonate]-[dibenzo-24-crown-8] rotaxane", "values": [{"measurement": "survival rate / proliferation of cancer cells", "setting": "[1]", "result": "has an effect of retarding the proliferation of cancer cells"}, {"measurement": "survival rate / proliferation of cancer cells", "setting": "[2]; 10 and 100 nM, electroporation 30 V DC pulse 10 times, 0, 24, 48, 72 hours (FIG. 4)", "result": "suppress the proliferation of cancer cells became significant"}, {"measurement": "survival rate / number of cancer cells over time", "setting": "[2]; sample D2: 100 nM, electroporation 30 V, 0-72 hours (FIG. 4)", "result": "cancer cells were reduced over time"}, {"measurement": "heat stability", "setting": "[3]", "result": "relatively heat-stable"}]}]}
